{"source": "patent US20080166323A1", "about": "“Activators of Hexosamine Biosynthesis as Inhibitors of Injury Induced by Ischemia or Hermorrhagic Shock” (UAB RESEARCH FOUNDATION, priority 2004, published 2008)", "key": {"[1]": {"test_system": "UDP-GlcNAc", "assay": "UDP-GlcNAc pools in isolated hearts", "conditions": "5 mM", "experimental": "In the experiments above with isolated hearts, glucosamine was protective after only a ten minute pre-incubation. While not wishing to be bound by theory, the mechanism believed to be responsible for the protection is an increase in concentration of an intracellular metabolite of the HBP, which results in an increase in protein-associated O-GlcNAc. […] Increases at ten minutes were 47%. With respect to the second point, experiments were performed in which a monoclonal antibody specific for O-GlcNAc on proteins (CTD110) (Corner, et al, Anal Biochem (2001) 293(2):169-177) was used in an immunoblotting protocol. The specificity of this antibody for O-GlcNAc-containing epitopes is verified in each experiment by the inclusion of 10 mM GlcNAc along with the CTD110 antibody on parallel samples. These samples show no staining (data not shown). CTD110 immunoblots were performed on extracts from isolated hearts following a ten-minute perfusion with buffer or buffer containing 5 mM glucosamine (FIG. 8). […] Intriguingly, one group of newly appearing proteins has molecular masses near 70 kDa and another around 90 kDa. […] Another family of heat shock proteins, HSP-90, has a molecular mass near 90 kDa (Nollen and Morimoto, J Cell Sci (2002) 115(Pt 14):2809-2816). Thus, O-GlcNAc bearing proteins appear to be responsible for the protection."}, "[2]": {"test_system": "O-GlcNAc on proteins", "assay": "CTD110 immunoblot of O-GlcNAc-containing proteins in isolated heart extracts", "conditions": "ten-minute perfusion, 5 mM, isolated hearts", "experimental": "FIG. 8 is a photograph of a CTD110 immunoblot performed on extracts from isolated hearts following a 10-minute perfusion with buffer (control) or buffer containing 5 mM glucosamine (GlcNH2). The differences in the O-GlcNAc-containing protein pattern between the control and the GlcNH2 treated hearts are indicated by arrows.\nIn the experiments above with isolated hearts, glucosamine was protective after only a ten minute pre-incubation. While not wishing to be bound by theory, the mechanism believed to be responsible for the protection is an increase in concentration of an intracellular metabolite of the HBP, which results in an increase in protein-associated O-GlcNAc. […] Increases at ten minutes were 47%. With respect to the second point, experiments were performed in which a monoclonal antibody specific for O-GlcNAc on proteins (CTD110) (Corner, et al, Anal Biochem (2001) 293(2):169-177) was used in an immunoblotting protocol. The specificity of this antibody for O-GlcNAc-containing epitopes is verified in each experiment by the inclusion of 10 mM GlcNAc along with the CTD110 antibody on parallel samples. These samples show no staining (data not shown). CTD110 immunoblots were performed on extracts from isolated hearts following a ten-minute perfusion with buffer or buffer containing 5 mM glucosamine (FIG. 8). […]"}, "[3]": {"test_system": "perfused hearts", "assay": "calcium paradox in perfused hearts (Langendorff)", "parameters": "species or system rat", "conditions": "5-minute pretreatment of control hearts", "experimental": "The effect of short-term hyperglycemia (2-5 days) on the calcium paradox was explored. The protocol (a 30-minute stabilization after hanging the heart on a Langendorff apparatus, a Ca^2+-free buffer for 10 min, a buffer containing 1.25 mM Ca^2+ buffer for 15 min) was initially applied to perfused hearts from control rats. When calcium was removed from the perfusate, the heart gradually ceased beating (FIG. 2A), although no protein loss from the heart was detected (FIG. 3C). […] The decrease in left ventricular […] pressure (LVDP) and an elevation in end diastolic pressure (EDP), as well as protein loss and blanching signaled the transition to a “stone heart” (Zimmerman, Cardiovasc Res (2000) 45(1):119-121) in hearts from all control animals examined.\nAzaserine (AZA), the inhibitor of GFAT and HBP flux (Marshall, et al., J Biol Chem (1991) 266(8):4706-4712), negated the effects of hyperglycemia, restoring sensitivity to the paradox in 3 of 7 hearts (FIG. 2B). […] This decreased somewhat the protection seen with hyperglycemia, but made the reversal seen with azaserine more pronounced (FIGS. 2B and 3).\nTo confirm the involvement of the HBP in the protection due to hyperglycemia, a complementary series of experiments at a final Ca^2+ concentration of 1.25 mM were performed.\nAn independent mechanism of increasing metabolites in the HBP is to provide the heart with free fatty acids (Hawkins, et al., J Clin Invest (1997) 99(9):2173-2182). This occurs because of the “glucose-sparing” effect, a rapid block on the entry of glucose into the glycolytic pathway because of an inhibition of phosphofructokinase. […] In addition, SKF96365 (also known as 1-[β-[3-(4-methoxyphenyl)propoxy]-4-methoxyphenethyl]-1H-imidazole, HCl; available from Calbiochem, San Diego, Calif.) as an independent means of blocking the channels responsible for CCE was utilized (Putney, Capacitative Calcium Entry (1997) Austin: Landes Biomedical). This too was at least partially effective in 4 of 6 animals (FIG. 4)."}, "[4]": {"test_system": "isolated rat hearts", "assay": "isolated heart model of ischemia and reperfusion", "conditions": "5 mM, added 10 minutes prior to ischemia and in reperfusion buffer; 10 min global ischemia, 15 min reperfusion; n=3", "experimental": "To determine whether glucosamine treatment was protective in an isolated heart model of ischemia and reperfusion, isolated rat hearts (n=3) were assessed for protection against damage utilizing an ischemia/reperfusion protocol that included 10 minutes of global ischemia followed by 15 minutes of reperfusion with oxygenated buffer. In the experimental group, 5 mM glucosamine was added to the buffer 10 minutes prior to the onset of ischemia and was also included in the reperfusion buffer."}}}
{"smiles": "N[C@H]1C(O)O[C@H](CO)[C@@H](O)[C@@H]1O", "note": "(stereo partly shown) [glucosamine]", "values": [{"measurement": "increase in UDP-GlcNAc pools", "setting": "[1]; 30 minute incubation", "value": "about 75%"}, {"measurement": "increase in UDP-GlcNAc pools", "setting": "[1]; ten minutes", "value": 47, "unit": "%"}, {"measurement": "O-GlcNAc-containing protein pattern vs buffer", "setting": "[2]", "value": "Clear differences"}, {"measurement": "function prior to calcium removal", "setting": "[3]", "value": "did not alter function"}, {"measurement": "hearts with significant protection following calcium readdition", "setting": "[3]; final Ca2+ 1.25 mM", "value": "7 of 7"}, {"measurement": "Protein loss inhibited", "setting": "[3]; final Ca2+ 1.25 mM, data not shown", "value": 88, "unit": "%"}, {"measurement": "protection from ischemia/reperfusion as assessed by LVDP and EDP", "setting": "[4]", "value": "significant protection"}]}
